From patent US20130317055A1, “NEURONAL NICOTINIC AGONIST AND METHODS OF USE” (ABBVIE INC., priority 2012, published 2013)

Tests used:
[1] = test system: clinically stable subjects with schizophrenia; test: Clinical Study A (Phase 2a, placebo-controlled): MATRICS Consensus Cognitive Battery (MCCB); type: in vivo, human; conditions: Phase 2a study; printed indication AD
[2] = test system: clinically stable subjects with schizophrenia; test: as above; type: in vivo, human; conditions: for MCCB Reasoning and Problem Solving: Difference from Placebo LS Mean (SE) of Difference / MCCB Reasoning and Problem Solving: LS Mean (SE) of Change from Baseline / MCCB Reasoning and Problem Solving: Observed Mean (SD) of change from baseline / MCCB Attention/Vigilance: Difference from Placebo LS Mean (SE) of Difference / MCCB Attention/Vigilance: LS Mean (SE) of Change from Baseline / MCCB Attention/Vigilance: Observed Mean (SD) of change from baseline / MCCB Social Cognition: Difference from Placebo LS Mean (SE) of Difference / MCCB Social Cognition: LS Mean (SE) of Change from Baseline / MCCB Social Cognition: Observed Mean (SD) of change from baseline / MCCB Speed of Processing: Difference from Placebo LS Mean (SE) of Difference / MCCB Speed of Processing: LS Mean (SE) of Change from Baseline / MCCB Speed of Processing: Observed Mean (SD) of change from baseline / MCCB Verbal Learning: Difference from Placebo LS Mean (SE) of Difference / MCCB Verbal Learning: LS Mean (SE) of Change from Baseline / MCCB Verbal Learning: Observed Mean (SD) of change from baseline / MCCB Visual Learning: Difference from Placebo LS Mean (SE) of Difference / MCCB Visual Learning: LS Mean (SE) of Change from Baseline / MCCB Visual Learning: Observed Mean (SD) of change from baseline / MCCB Working Memory: Difference from Placebo LS Mean (SE) of Difference / MCCB Working Memory: LS Mean (SE) of Change from Baseline / MCCB Working Memory: Observed Mean (SD) of change from baseline: 10 mg QD, ITT
Excerpt: A Phase 2a proof-of-concept (POC) study in clinically stable subjects with schizophrenia who were clinically stable and received stable doses of atypical antipsychotic therapy. The study was a Phase 2, multi-center, randomized, double-blind, placebo-controlled, parallel group study designed to evaluate the safety and efficacy of doses of (4s)-4-(5-phenyl-1,3,4-thiadiazol-2-yloxy)-1-azatricyclo[3.3.1.1^3,7]decane (Compound A) in clinically stable male and female subjects (ages 20 to 55, inclusive) with a Diagnostic and Statistical Manual of Mental Disorders Fourth Edition, Text Revision (DSM-IV-TR) diagnosis of schizophrenia. Psychiatric diagnoses were confirmed using the Mini-International Neuropsychiatric Interview (MINI) version 6.0.0. The criteria for clinical stability was determined by a combination of retrospective data (over the 4 months prior to the start of Screening, which will be supported by clinical records, patient, identified responsible contact person, and physician interviews), and prospective data assessed during the Prospective Stabilization Period of 28 to 42 days duration.
The study was a Phase 2, multi-center, randomized, double-blind, placebo-controlled, parallel group study designed to evaluate the safety and efficacy of doses of (4s)-4-(5-phenyl-1,3,4-thiadiazol-2-yloxy)-1-azatrieyclo[3.3.1.1^3,7]decane, which is also recognized as Compound A, in treating cognitive deficits in subjects with schizophrenia who were clinically stable and receiving one or two atypical antipsychotic medications. Study drug was administered orally.
The study consisted of a screening period of at least 28 and up to 42 days, a 84-day outpatient treatment period, a 14-day post-treatment period, and a post-treatment follow-up period. The screening period consisted of three visits: Screening Visit 1, Screening Visit 2, and Day −1. Upon completion of Day −1 procedures, eligible subjects were randomized through an Interactive Voice Response/Interactive Web-Based (IVR/IWB) system. Subjects were randomized in an equal ratio to one of three treatment groups (placebo, 10 mg Compound A, or 25 mg Compound A).
Subjects were randomized in a 1:1:1 ratio with placebo, 10 mg QD Compound A, of 25 mg Compound A. Each subject was instructed to take study drug once-daily in the morning for 12 weeks. Each daily dose was preferably taken with food. The subject and investigator were blinded to the treatment assignment throughout the study. The treatment assignments for the study subjects are shown below in Table 1.
The primary endpoint was the MCCB composite score, and the primary endpoint analysis was the change on the MCCB composite score from baseline to endpoint versus placebo. Other secondary measures included the MCCB domains, the NSA-16, the CANTAB cognition battery (measured at different time points from the MCCB), and the UPSA-2. The Positive and Negative Syndrome Scale (PANSS) was included to document stability in schizophrenia symptomatology.
The MCCB was developed by a consortium of academic, industry, the Food and Drug Administration (FDA) and National Institute of Mental Health ([…]) members called Measurement and Treatment Research to Improve Cognition in Schizophrenia (MATRICS). The battery was established in a multiple phase process that involved experts identifying cognitive tests in the literature that had shown deficits in schizophrenia, use of factor analysis to identify key domains of cognitive deficits in schizophrenia, and then empirically identifying the best tests for each domain based on reliability, validity and feasibility for use in clinical trials. The FDA has endorsed the MCCB as an appropriate outcome measure for Phase 3 CDS trials. […]

c1ccc(-c2nnc(O[C@@H]3C4CC5C[C@H]3C[N@](C5)C4)s2)cc1 [Compound A, (4s)-4-(5-phenyl-1,3,4-thiadiazol-2-yloxy)-1-azatricyclo[3.3.1.1^3,7]decane]
Signal for efficacy in symptomatic treatment [1]: demonstrated a signal for efficacy | MCCB Reasoning and Problem Solving: Difference from Placebo LS Mean (SE) of Difference ([2]; Change to Week 2): 1.24 (1.18) T-score | MCCB Reasoning and Problem Solving: LS Mean (SE) of Change from Baseline ([2]; Change to Week 2): 1.99 (0.84) T-score | MCCB Reasoning and Problem Solving: Observed Mean (SD) of change from baseline ([2]; Change to Week 2): 1.70 (6.03) T-score | MCCB Attention/Vigilance: Difference from Placebo LS Mean (SE) of Difference ([2]; Change to Week 6): 1.29 (1.35) T-score | MCCB Attention/Vigilance: LS Mean (SE) of Change from Baseline ([2]; Change to Week 6): 0.49 (0.98) T-score | MCCB Attention/Vigilance: Observed Mean (SD) of change from baseline ([2]; Change to Week 6): 0.83 (7.62) T-score | MCCB Reasoning and Problem Solving: Difference from Placebo LS Mean (SE) of Difference ([2]; Change to Week 6): 0.53 (1.03) T-score | MCCB Reasoning and Problem Solving: LS Mean (SE) of Change from Baseline ([2]; Change to Week 6): 0.49 (0.75) T-score | MCCB Reasoning and Problem Solving: Observed Mean (SD) of change from baseline ([2]; Change to Week 6): 0.08 (5.57) T-score | MCCB Social Cognition: Difference from Placebo LS Mean (SE) of Difference ([2]; Change to Week 6): −0.46 (1.34) T-score | MCCB Social Cognition: LS Mean (SE) of Change from Baseline ([2]; Change to Week 6): 1.04 (0.97) T-score | MCCB Social Cognition: Observed Mean (SD) of change from baseline ([2]; Change to Week 6): 1.14 (7.87) T-score | MCCB Speed of Processing: Difference from Placebo LS Mean (SE) of Difference ([2]; Change to Week 6): 0.74 (1.04) T-score | MCCB Speed of Processing: LS Mean (SE) of Change from Baseline ([2]; Change to Week 6): 1.13 (0.74) T-score | MCCB Speed of Processing: Observed Mean (SD) of change from baseline ([2]; Change to Week 6): 1.00 (5.49) T-score | MCCB Verbal Learning: Difference from Placebo LS Mean (SE) of Difference ([2]; Change to Week 6): 0.24 (1.12) T-score | MCCB Verbal Learning: LS Mean (SE) of Change from Baseline ([2]; Change to Week 6): 0.31 (0.82) T-score | MCCB Verbal Learning: Observed Mean (SD) of change from baseline ([2]; Change to Week 6): 0.68 (7.99) T-score | MCCB Visual Learning: Difference from Placebo LS Mean (SE) of Difference ([2]; Change to Week 6): 1.74 (1.57) T-score | MCCB Visual Learning: LS Mean (SE) of Change from Baseline ([2]; Change to Week 6): 1.59 (1.13) T-score | MCCB Visual Learning: Observed Mean (SD) of change from baseline ([2]; Change to Week 6): 1.35 (9.36) T-score | MCCB Working Memory: Difference from Placebo LS Mean (SE) of Difference ([2]; Change to Week 6): 0.86 (1.03) T-score | MCCB Working Memory: LS Mean (SE) of Change from Baseline ([2]; Change to Week 6): 0.35 (0.75) T-score | MCCB Working Memory: Observed Mean (SD) of change from baseline ([2]; Change to Week 6): 0.27 (5.15) T-score | MCCB Attention/Vigilance: Difference from Placebo LS Mean (SE) of Difference ([2]; Change to Week 12): 2.63 (1.49) T-score | MCCB Attention/Vigilance: LS Mean (SE) of Change from Baseline ([2]; Change to Week 12): 0.64 (1.06) T-score | MCCB Attention/Vigilance: Observed Mean (SD) of change from baseline ([2]; Change to Week 12): 1.15 (8.46) T-score | MCCB Social Cognition: Difference from Placebo LS Mean (SE) of Difference ([2]; Change to Week 12): 0.40 (1.52) T-score | MCCB Social Cognition: LS Mean (SE) of Change from Baseline ([2]; Change to Week 12): 0.99 (1.08) T-score | MCCB Social Cognition: Observed Mean (SD) of change from baseline ([2]; Change to Week 12): 1.38 (6.51) T-score | MCCB Speed of Processing: Difference from Placebo LS Mean (SE) of Difference ([2]; Change to Week 12): 1.08 (1.20) T-score | MCCB Speed of Processing: LS Mean (SE) of Change from Baseline ([2]; Change to Week 12): 2.36 (0.85) T-score | MCCB Speed of Processing: Observed Mean (SD) of change from baseline ([2]; Change to Week 12): 2.33 (6.05) T-score | MCCB Verbal Learning: Difference from Placebo LS Mean (SE) of Difference ([2]; Change to Week 12): 0.61 (1.10) T-score | MCCB Verbal Learning: LS Mean (SE) of Change from Baseline ([2]; Change to Week 12): 1.08 (0.79) T-score | MCCB Verbal Learning: Observed Mean (SD) of change from baseline ([2]; Change to Week 12): 1.28 (7.06) T-score | MCCB Visual Learning: Difference from Placebo LS Mean (SE) of Difference ([2]; Change to Week 12): 0.73 (1.59) T-score | MCCB Visual Learning: LS Mean (SE) of Change from Baseline ([2]; Change to Week 12): 0.29 (1.12) T-score | MCCB Visual Learning: Observed Mean (SD) of change from baseline ([2]; Change to Week 12): 0.05 (8.06) T-score | MCCB Working Memory: Difference from Placebo LS Mean (SE) of Difference ([2]; Change to Week 12): 0.80 (1.18) T-score | MCCB Working Memory: LS Mean (SE) of Change from Baseline ([2]; Change to Week 12): 0.92 (0.84) T-score | MCCB Working Memory: Observed Mean (SD) of change from baseline ([2]; Change to Week 12): 0.83 (7.04) T-score | MCCB domains with dose response relationship ([2]; 10 mg and 25 mg, exception reasoning): 6 of the 7 domains | MCCB composite score: LS mean change from baseline ([2]; 10 mg, baseline to Week 6, MNIRIVI analysis, placebo LS mean +0.49): +1.25
